Results from ChEMBL document CHEMBL3351695, “Synthesis of novel 10-hydroxycamptothecin derivatives utilizing topotecan hydrochloride as ortho-quinonemethide precursor” (Bioorg Med Chem, 2015).
Structures can show the parent of a compound that is named as a salt. The source made the active and inactive calls. The calls are words filed in the database; no cut-off is given here.

How the values were obtained:
[1] = Antiproliferative activity against human SGC7901 cells after 48 hrs by CCK8 assay; type: functional, cell-based; conditions: SGC-7901, 48 h
[2] = test system: HepG2; test: Antiproliferative activity against human HepG2 cells after 48 hrs by CCK8 assay; type: functional, cell-based; conditions: HepG2, 48 h
[3] = Antiproliferative activity against human HCT8 cells after 48 hrs by CCK8 assay; type: functional, cell-based; conditions: HCT-8, 48 h
[4] = test system: KB; test: Antiproliferative activity against human KB cells after 48 hrs by CCK8 assay; type: functional, cell-based
[5] = biological target: T1, DNA topoisomerase 1 (Homo sapiens) (UniProt P11387); test: Inhibition of purified Topo 1 (unknown origin)-mediated supercoiled pBR322 DNA cleavage at 12.5 uM after 15 mins by agarose gel electrophoresis
T1 sequence (whole entry): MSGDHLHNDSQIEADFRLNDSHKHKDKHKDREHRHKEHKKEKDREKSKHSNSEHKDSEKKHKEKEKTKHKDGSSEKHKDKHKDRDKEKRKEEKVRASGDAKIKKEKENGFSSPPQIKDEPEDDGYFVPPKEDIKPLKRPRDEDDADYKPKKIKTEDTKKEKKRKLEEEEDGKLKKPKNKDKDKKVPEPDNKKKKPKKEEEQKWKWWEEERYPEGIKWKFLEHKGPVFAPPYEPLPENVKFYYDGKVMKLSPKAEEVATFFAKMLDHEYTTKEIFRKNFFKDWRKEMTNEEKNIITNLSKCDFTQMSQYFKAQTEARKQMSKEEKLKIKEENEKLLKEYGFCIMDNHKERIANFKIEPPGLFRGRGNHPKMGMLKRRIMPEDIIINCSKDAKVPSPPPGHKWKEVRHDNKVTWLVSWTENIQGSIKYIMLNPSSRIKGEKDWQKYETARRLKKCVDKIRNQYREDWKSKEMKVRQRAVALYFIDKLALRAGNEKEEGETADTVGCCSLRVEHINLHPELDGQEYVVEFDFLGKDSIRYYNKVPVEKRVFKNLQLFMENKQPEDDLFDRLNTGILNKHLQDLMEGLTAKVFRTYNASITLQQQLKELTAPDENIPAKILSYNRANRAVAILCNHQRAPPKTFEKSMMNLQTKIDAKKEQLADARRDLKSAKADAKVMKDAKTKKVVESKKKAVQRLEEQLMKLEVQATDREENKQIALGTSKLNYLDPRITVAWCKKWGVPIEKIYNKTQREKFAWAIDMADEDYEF

[6] = test system: SGC-7901; test: Ratio of 10-hydroxycamptothecin IC50 to compound IC50 for human SGC7901 cells after 48 hrs by CCK8 assay; type: functional

Row | Compound | IC50 [1] | IC50 [2] | IC50 [3] | IC50 [4] | inhibition [5] | Ratio IC50 [6]
1 | CCSCc1c(O)ccc2nc3c(cc12)Cn1c-3cc2c(c1=O)COC(=O)[C@]2(O)CC | 549 nM | 595 nM | 282 nM | 2190 nM | – | –
2 | CC[C@@]1(O)C(=O)OCc2c1cc1n(c2=O)Cc2cc3cc(O)ccc3nc2-1 [HYDROXYCAMPTOTHECIN] | 835 nM | 499 nM | 181 nM | 128 nM | Active | –
3 | CCCSCc1c(O)ccc2nc3c(cc12)Cn1c-3cc2c(c1=O)COC(=O)[C@]2(O)CC | 2820 nM | 734 nM | 746 nM | 2170 nM | – | –
4 | CCCCOC1CCc2c(ccc3nc4c(cc23)Cn2c-4cc3c(c2=O)COC(=O)[C@]3(O)CC)O1 (some centres not stated) | 772 nM | 145 nM | 317 nM | 950 nM | inactive | –
5 | CC[C@@]1(O)C(=O)OCc2c1cc1n(c2=O)Cc2cc3c4c(ccc3nc2-1)OC(O)CC4 (some centres not stated) | 536 nM | 184 nM | 567 nM | 777 nM | Active | –
6 | CC[C@@]1(O)C(=O)OCc2c1cc1n(c2=O)Cc2cc3c(CSC(C)C)c(O)ccc3nc2-1 | 993 nM | 351 nM | 406 nM | 994 nM | Active | –
7 | CC[C@@]1(O)C(=O)OCc2c1cc1n(c2=O)Cc2cc3c4c(ccc3nc2-1)O[C@@H]1OCC[C@H]1C4 | 182 nM | 332 nM | 203 nM | 1710 nM | inactive | 4
8 | CC[C@@]1(O)C(=O)OCc2c1cc1n(c2=O)Cc2cc3c4c(ccc3nc2-1)O[C@@H]1OCCC[C@H]1C4 | 255 nM | 266 nM | 204 nM | 1230 nM | – | 4
9 | CC[C@@]1(O)C(=O)OCc2c1cc1n(c2=O)Cc2cc3c(CSC(C)(C)C)c(O)ccc3nc2-1 | 3140 nM | 762 nM | 1430 nM | 1410 nM | – | –
10 | CCOC1CCc2c(ccc3nc4c(cc23)Cn2c-4cc3c(c2=O)COC(=O)[C@]3(O)CC)O1 (some centres not stated) | 413 nM | 265 nM | 401 nM | 1480 nM | – | –
11 | CC[C@@]1(O)C(=O)OCc2c1cc1n(c2=O)Cc2cc3c(CSCCC(=O)O)c(O)ccc3nc2-1 | 40800 nM | 89000 nM | 30300 nM | > 100000 nM | inactive | –
12 | CC[C@@]1(O)C(=O)OCc2c1cc1n(c2=O)Cc2cc3c4c(ccc3nc2-1)OC(OCC(C)C)CC4 (some centres not stated) | 344 nM | 387 nM | 471 nM | 1140 nM | – | –
13 | CC[C@@]1(O)C(=O)OCc2c1cc1n(c2=O)Cc2cc3c(CSCC(=O)OC)c(O)ccc3nc2-1 | 9020 nM | 3200 nM | 3090 nM | 12900 nM | – | –
14 | CC[C@@]1(O)C(=O)OCc2c1cc1n(c2=O)Cc2cc3c(CSC)c(O)ccc3nc2-1 | 2170 nM | 70400 nM | 1220 nM | 19300 nM | – | –
15 | CC[C@@]1(O)C(=O)OCc2c1cc1n(c2=O)Cc2cc3c(CN(C)C)c(O)ccc3nc2-1 [TOPOTECAN HYDROCHLORIDE] | 2290 nM | 4210 nM | 1880 nM | 2280 nM | – | –
16 | CCN(CC)CCSCc1c(O)ccc2nc3c(cc12)Cn1c-3cc2c(c1=O)COC(=O)[C@]2(O)CC | 10400 nM | 5090 nM | 21900 nM | 32500 nM | – | –
